{
  "source": "patent US20050043363A1",
  "about": "“Efficient microbial preparation of capravirine metabolites M4 and M5” (AGOURON PHARMACEUTICALS, INC., priority 2003, published 2005)",
  "key": {"HIV": {"test_system": "HIV", "experiment": "Antiviral activity determined measuring XTT dye reduction", "type": "cell-based", "conditions": "for EC50 / EC90: Human immunodeficiency virus 1, antiviral activity, XTT dye reduction, mean of 2-4 experiments (M4, M5) or 9 experiments (CPV)", "source_text": "The term “EC50”, as used herein, means the statistically derived concentration of a toxicant that can be expected to cause a defined non-lethal effect in 50% of a given population of organisms under defined conditions.\nThe term “EC90”, as used herein, means the statistically derived concentration of a toxicant that can be expected to cause a defined non-lethal effect in 90% of a given population of organisms under defined conditions."}, "[1]": {"experiment": "Cytotoxicity determined measuring XTT dye reduction", "type": "cell-based", "conditions": "compound-treated cells, 50% cytotoxicity concentration, uninfected cells", "method": "The term “CC50”, as used herein, means the 50% cytotoxicity concentration, which is calculated as the concentration of compound that decreases the viability of uninfected, compound-treated cells to 50% of that of uninfected, compound-free cells."}},
  "data": [
    {"smiles": "CC(C)c1nc(COC(N)=O)n(Cc2ccncc2)c1Sc1cc(Cl)cc(Cl)c1", "note": "[CPV, 2-carbamoyloxymethyl-5-(3,5-dichlorophenyl)thio-4-isopropyl-1-(4-pyridyl)methyl-1H-imidazole, reference compound]", "values": [
      {"measurement": "TI (Therapeutic index = CC50/EC50)", "setting": "HIV", "result": "45,667"},
      {"measurement": "EC50", "setting": "HIV", "result": 1.5, "unit": "nM"},
      {"measurement": "EC90", "setting": "HIV", "result": 3.2, "unit": "nM"},
      {"measurement": "CC50", "setting": "[1]", "result": 69, "unit": "µM"}
    ]},
    {"smiles": "CC(C)(O)c1nc(COC(N)=O)n(Cc2ccncc2)c1Sc1cc(Cl)cc(Cl)c1", "note": "[M4]", "values": [
      {"measurement": "TI (Therapeutic index = CC50/EC50)", "setting": "HIV", "result": ">6,737"},
      {"measurement": "EC50", "setting": "HIV", "result": 48, "unit": "nM"},
      {"measurement": "EC90", "setting": "HIV", "result": 110, "unit": "nM"},
      {"measurement": "CC50", "setting": "[1]", "result": "> 320", "unit": "µM"}
    ]},
    {"smiles": "CC(CO)c1nc(COC(N)=O)n(Cc2ccncc2)c1Sc1cc(Cl)cc(Cl)c1", "note": "(stereo not drawn) [M5]", "values": [
      {"measurement": "TI (Therapeutic index = CC50/EC50)", "setting": "HIV", "result": ">6,882"},
      {"measurement": "EC50", "setting": "HIV", "result": 47, "unit": "nM"},
      {"measurement": "EC90", "setting": "HIV", "result": 110, "unit": "nM"},
      {"measurement": "CC50", "setting": "[1]", "result": "> 320", "unit": "µM"}
    ]}
  ]
}
